From the supplement of paper PMC11451515

Columns and labels:
Conditions in all cases: 48 h
NOMO1 [1] = assay: cell viability relative to DMSO control; higher = less cytotoxic
Outline: (§1)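 In 1536-well plates, 5 μl of leukemia cells were seeded per well: 500 cells/well for NOMO1 or SEM and 1000 cells/well for P12-Ichikawa. Each line had first been adapted for at least four passages in each medium. Library compounds in DMSO were pin-dosed at 11 threefold concentrations between 47 μM and 0.79 nM, and CellTiter-Glo One luminescence was read after 48 h at 37°C. Viability is a per-plate percentage relative to DMSO wells, with cell-free wells as background.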

P12-Ichikawa [2] = assay: as above
Outline: as §1

SEM cells [3] = assay: as above
Outline: as §1

NOMO1 [4] = assay: AUC of viability dose-response curve (% viability x log10 dose units); higher = less sensitive
Outline: (§2)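 Area under the curve was integrated by trapezoidal rule from a log-logistic fit of normalised viability, with curves exceeding full viability scaled and quality-control failures removed. The fit had four parameters over log10 doses. Viability came from CellTiter-Glo One luminescence, normalised per plate to DMSO and cell-free wells, after leukemia cells adapted to each medium (500 or 1000 cells/well, 1536-well plates) were exposed to library compounds in DMSO for 48 h at 37°C. The 11 threefold doses ran from 47 μM to 0.79 nM.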

P12-Ichikawa [5] = assay: as above
Outline: as §2

SEM cells [6] = assay: as above
Outline: as §2

COc1cc2c(NC3CCN(C(C)C)CC3)nc(C3CCCCC3)nc2cc1OCCCN1CCCC1
cell viability [%]
Conditions	NOMO1 [1]	P12-Ichikawa [2]	SEM cells [3]
HPLM + 10% dialyzed FBS, 0.000781 µM	120	107	111
HPLM + 10% dialyzed FBS, 0.00234 µM	133	110	125
HPLM + 10% dialyzed FBS, 0.00702 µM	123	115	109
HPLM + 10% dialyzed FBS, 0.0211 µM	118	121	122
HPLM + 10% dialyzed FBS, 0.0632 µM	142	121	122
HPLM + 10% dialyzed FBS, 0.19 µM	128	121	125
HPLM + 10% dialyzed FBS, 0.569 µM	118	120	130
HPLM + 10% dialyzed FBS, 1.71 µM	130	123	81.9
HPLM + 10% dialyzed FBS, 5.12 µM	111	119	108
HPLM + 10% dialyzed FBS, 15.4 µM	102	105	61.7
HPLM + 10% dialyzed FBS, 46.1 µM	9.5	4.7	6.83
RPMI 5 mM glucose + 10% FBS, 0.000781 µM	107	112	109
RPMI 5 mM glucose + 10% FBS, 0.00234 µM	117	127	113
RPMI 5 mM glucose + 10% FBS, 0.00702 µM	114	113	122
RPMI 5 mM glucose + 10% FBS, 0.0211 µM	129	127	116
RPMI 5 mM glucose + 10% FBS, 0.0632 µM	117	121	112
RPMI 5 mM glucose + 10% FBS, 0.19 µM	130	116	122
RPMI 5 mM glucose + 10% FBS, 0.569 µM	134	120	109
RPMI 5 mM glucose + 10% FBS, 1.71 µM	114	131	77.3
RPMI 5 mM glucose + 10% FBS, 5.12 µM	118	112	113
RPMI 5 mM glucose + 10% FBS, 15.4 µM	115	96.9	76.6
RPMI 5 mM glucose + 10% FBS, 46.1 µM	18.2	3.81	10.2
RPMI 5 mM glucose + 10% dialyzed FBS, 0.000781 µM	–	106	90.1
RPMI 5 mM glucose + 10% dialyzed FBS, 0.00234 µM	–	117	114
RPMI 5 mM glucose + 10% dialyzed FBS, 0.00702 µM	–	114	111
RPMI 5 mM glucose + 10% dialyzed FBS, 0.0211 µM	–	121	119
RPMI 5 mM glucose + 10% dialyzed FBS, 0.0632 µM	–	123	116
RPMI 5 mM glucose + 10% dialyzed FBS, 0.19 µM	–	129	113
RPMI 5 mM glucose + 10% dialyzed FBS, 0.569 µM	–	122	112
RPMI 5 mM glucose + 10% dialyzed FBS, 1.71 µM	–	133	76.8
RPMI 5 mM glucose + 10% dialyzed FBS, 5.12 µM	–	110	115
RPMI 5 mM glucose + 10% dialyzed FBS, 15.4 µM	–	91.5	93.5
RPMI 5 mM glucose + 10% dialyzed FBS, 46.1 µM	–	4.78	32.9

AUC of viability dose-response curve
Conditions	NOMO1 [4]	P12-Ichikawa [5]	SEM cells [6]
HPLM + 10% dialyzed FBS	444	449	419
RPMI 5 mM glucose + 10% FBS	455	445	440
RPMI 5 mM glucose + 10% dialyzed FBS	438	441	454

O=C(NC1CC1)c1cccc(-c2ccc3c(NC(=O)C4CC4)n[nH]c3c2)c1
cell viability [%]
Conditions	NOMO1 [1]	P12-Ichikawa [2]	SEM cells [3]
HPLM + 10% dialyzed FBS, 0.000781 µM	101	109	98.9
HPLM + 10% dialyzed FBS, 0.00234 µM	109	109	98.1
HPLM + 10% dialyzed FBS, 0.00702 µM	117	108	107
HPLM + 10% dialyzed FBS, 0.0211 µM	121	113	96.2
HPLM + 10% dialyzed FBS, 0.0632 µM	119	114	97.6
HPLM + 10% dialyzed FBS, 0.19 µM	109	113	95.1
HPLM + 10% dialyzed FBS, 0.569 µM	119	112	97.2
HPLM + 10% dialyzed FBS, 1.71 µM	118	112	98.5
HPLM + 10% dialyzed FBS, 5.12 µM	122	95.2	90
HPLM + 10% dialyzed FBS, 15.4 µM	87.6	39.5	62.8
HPLM + 10% dialyzed FBS, 46.1 µM	38.3	13.1	18.8
RPMI 5 mM glucose + 10% FBS, 0.000781 µM	129	111	97.1
RPMI 5 mM glucose + 10% FBS, 0.00234 µM	113	114	106
RPMI 5 mM glucose + 10% FBS, 0.00702 µM	122	113	109
RPMI 5 mM glucose + 10% FBS, 0.0211 µM	139	127	107
RPMI 5 mM glucose + 10% FBS, 0.0632 µM	125	121	103
RPMI 5 mM glucose + 10% FBS, 0.19 µM	115	124	98.4
RPMI 5 mM glucose + 10% FBS, 0.569 µM	111	110	103
RPMI 5 mM glucose + 10% FBS, 1.71 µM	112	113	113
RPMI 5 mM glucose + 10% FBS, 5.12 µM	123	101	89.4
RPMI 5 mM glucose + 10% FBS, 15.4 µM	98.7	43.5	51.3
RPMI 5 mM glucose + 10% FBS, 46.1 µM	20.2	12.6	11.1
RPMI 5 mM glucose + 10% dialyzed FBS, 0.000781 µM	118	110	103
RPMI 5 mM glucose + 10% dialyzed FBS, 0.00234 µM	124	120	108
RPMI 5 mM glucose + 10% dialyzed FBS, 0.00702 µM	123	118	104
RPMI 5 mM glucose + 10% dialyzed FBS, 0.0211 µM	130	121	104
RPMI 5 mM glucose + 10% dialyzed FBS, 0.0632 µM	124	118	116
RPMI 5 mM glucose + 10% dialyzed FBS, 0.19 µM	129	116	115
RPMI 5 mM glucose + 10% dialyzed FBS, 0.569 µM	110	114	102
RPMI 5 mM glucose + 10% dialyzed FBS, 1.71 µM	122	112	104
RPMI 5 mM glucose + 10% dialyzed FBS, 5.12 µM	132	102	86.1
RPMI 5 mM glucose + 10% dialyzed FBS, 15.4 µM	99.7	55.3	56.9
RPMI 5 mM glucose + 10% dialyzed FBS, 46.1 µM	35.3	24.5	18.2

AUC of viability dose-response curve
Conditions	NOMO1 [4]	P12-Ichikawa [5]	SEM cells [6]
HPLM + 10% dialyzed FBS	450	418	430
RPMI 5 mM glucose + 10% FBS	448	419	425
RPMI 5 mM glucose + 10% dialyzed FBS	451	426	422
